{"source": "patent US3959272A", "about": "“Aminoalkyl esters of 2-anilino-nicotinic acids” (Societe Anonyme dite: Hexachime, priority 1972, dated 1976)", "key": {"[1]": {"assay": "Anti-inflammatory activity: oedema provoked by carragenin in the rat", "type": "in vivo", "conditions": "po, read-out: percentage inhibition of oedema", "procedure": "The method used was as follows.\nThe anti-inflammatory activity was measured on oedema provoked by carragenin in the rat. Groups of six male rats each weighing 120 to 130 g received the compound under test orally in suspension in \"tween 80\", half the dose being given 2 hours before and the other half 1/2 hour before the subcutaneous plantar injection of 0.05 ml of a 1 % carragenin solution. The volume of the injected paw was measured by plethysmography at regular intervals. Table 1 below gives the percentage inhibition of the oedema with reference to untreated controls."}, "[2]": {"conditions": "dog, in vivo", "procedure": "The product of Example 1 was perfused in the dog at a dosage of 50 mg/minute by the saphena vein. Cardiac arrest was produced by a dose of 344 mg/kg."}, "[3]": {"assay": "Hypnotic activity in rats or mice (loss of righting reflex)", "type": "in vivo", "conditions": "for % of sleeping animals: mice", "procedure": "(§1) The compounds under test were administered to rats or mice intraperitoneally. The loss of the righting reflex was noted and the duration of sleep measured objectively with reference to the loss of the righting reflex. The compounds under test were also administered by slow perfusion to dogs. The moment when the dog fell asleep and the duration of sleep was noted."}, "[4]": {"type": "in vivo, dog", "conditions": "48 mg/kg intravenously at 1 mg/kg/minute; two dogs", "procedure": "as §1\nTwo dogs each weighing 11 kg. received intravenously 48 mg/kg of the product of Example 1 perfused at the rate of 1 mg/kg/minute. Sleep appeared at the end of 25 minutes and lasted for 15 minutes. The animals were sleepy for 1 hour after the end of the perfusion."}, "[5]": {"assay": "Overall result of the pharmacological tests", "type": "in vivo", "conditions": "according to the results obtained", "excerpt": "The new compounds show these properties in the tests usually used to determine them."}, "[6]": {"assay": "Antagonism of convulsions produced by cardiazole", "type": "in vivo", "conditions": "Mus musculus, ip, read-out: Percentage inhibition of tonic convulsions", "procedure": "Groups of 6 mice received the compound under test 30 minutes before introperitoneal injection of 160 mg/kg of cardiazole. The action of the compound under test on the tonic convulsion phase was observed."}, "[7]": {"assay": "Potentiation of stereotypes by amphetamine", "type": "in vivo, rat", "conditions": "5 mg/kg dexamphetamine sulphate", "procedure": "The compound under test was administered to groups of 5 rats intraperitoneally. Thirty minutes afterwards, 5 mg/kg of dexamphetamine sulphate was injected intraperitoneally. The duration of the phenomenon is counted at regular intervals from 0 to 4 and the counts are added up."}, "Escape test": {"assay": "Escape test", "type": "in vivo", "conditions": "Mus musculus, ip, 0.5 h, read-out: Percentage inhibition (number of attempts to escape)", "procedure": "Groups of 8 mice were placed in sub groups of 4 in an enclosure from which they could escape by an inclined plane. The number of attempts to escape during 5 minutes were counted half an hour after intraperitoneal administration of the compound under test."}, "[8]": {"assay": "Action on the activity of noradrenaline in dogs", "conditions": "dog, in vivo"}, "[9]": {"assay": "Chronic toxicity in beagle dogs, 3 months", "type": "in vivo, beagle dog", "conditions": "150 mg/kg each day for 3 months", "procedure": "Six beagle dogs (3 male and 3 female) received each day for 3 months 150 mg/kg of the product of Example 1."}, "Laparotomy test": {"assay": "Laparotomy test", "type": "in vivo, rat", "conditions": "as the hydrochloride; for ED50: Rattus norvegicus, ip, intraperitoneal", "procedure": "Rats weighing 110 to 130 g each received the product of Example 1 (as the hydrochloride) by intraperitoneal injection. 10 or 30 Minutes after the treatment, the animals are examined to see:\n1. If they allow themselves to remain lying on their backs;\n3. if they tolerate an incision into the skin; and\n4. if they tolerate an incision into the muscle. If an animal submits without reaction it is counted as zero, and if it reacts it is counted as one. The total score is calculated for each dosage. The following table gives the percentage protection and the number of sleeping rats."}, "[10]": {"assay": "Post-operative pain following bone surgery, patients", "type": "in vivo, human (patients)", "procedure": "The product of Example 1 has been administered to patients suffering from post-operative pain following bone surgery. 10 Patients received the compound at a daily dosage of 150 mg orally. Complete or partial analgesia was felt by 5 patients and slight analgesia by a further 4. When administered intramuscularly at a dosage of 20 to 100 mg per day to 9 patients, the product of Example 1 produced complete analgesia in 5, partial analgesia in 2 and slight analgesia in the remaining 2. […] Eight patients received the product of Example 1 rectally in a dosage of 300 mg per day."}, "[11]": {"conditions": "150 mg daily orally, 10 patients"}, "[12]": {"conditions": "300 mg per day rectally, eight patients"}, "[13]": {"conditions": "20 to 100 mg per day intramuscularly, 9 patients"}, "[14]": {"conditions": "50 to 100 mg per day intravenously, slow injection, 13 patients"}}, "data": [{"smiles": "Cc1cccc(Nc2ncccc2C(=O)OCCN2CCOCC2)c1C", "note": "[Example 1, β-Morpholino ethyl nixylate]", "values": [{"measurement": "inhibition in vivo at 16 mg/kg", "setting": "[1]; 16 mg/kg orally", "value": 16, "unit": "%"}, {"measurement": "inhibition in vivo at 32 mg/kg", "setting": "[1]; 32 mg/kg orally", "value": 20, "unit": "%"}, {"measurement": "inhibition in vivo at 64 mg/kg", "setting": "[1]; 64 mg/kg orally", "value": 34, "unit": "%"}, {"measurement": "inhibition in vivo at 128 mg/kg", "setting": "[1]; 128 mg/kg orally", "value": 45, "unit": "%"}, {"measurement": "inhibition in vivo at 256 mg/kg", "setting": "[1]; 256 mg/kg orally", "value": 61, "unit": "%"}, {"measurement": "dose producing cardiac arrest", "setting": "[2]", "value": 344, "unit": "mg/kg"}, {"measurement": "% of sleeping animals", "setting": "[3]; 50 mg/kg intraperitoneally", "value": 0, "unit": "%"}, {"measurement": "% of sleeping animals", "setting": "[3]; 75 mg/kg intraperitoneally", "value": 46, "unit": "%"}, {"measurement": "% of sleeping animals", "setting": "[3]; 100 mg/kg intraperitoneally", "value": 57, "unit": "%"}, {"measurement": "% of sleeping animals", "setting": "[3]; 125 mg/kg intraperitoneally", "value": 84, "unit": "%"}, {"measurement": "% of sleeping animals", "setting": "[3]; 200 mg/kg intraperitoneally", "value": 92, "unit": "%"}, {"measurement": "% of sleeping animals", "setting": "[3]; 250 mg/kg intraperitoneally", "value": 100, "unit": "%"}, {"measurement": "sleep caused", "setting": "[3]; only this product of those tested", "value": "caused sleep"}, {"measurement": "duration of sleep", "setting": "[4]", "value": 15, "unit": "min"}, {"measurement": "time animals were sleepy after the end of the perfusion", "setting": "[4]", "value": 1, "unit": "h"}, {"measurement": "time at which sleep appeared", "setting": "[4]", "value": 25, "unit": "min"}, {"measurement": "activity relative to the other compounds", "setting": "[5]", "value": "the most active compound"}, {"measurement": "inhibition in vivo at 8 mg/kg", "setting": "[6]; 8 mg/kg intraperitoneally", "value": 0, "unit": "%"}, {"measurement": "inhibition in vivo at 16 mg/kg", "setting": "[6]; 16 mg/kg intraperitoneally", "value": 12, "unit": "%"}, {"measurement": "inhibition in vivo at 32 mg/kg", "setting": "[6]; 32 mg/kg intraperitoneally", "value": 21, "unit": "%"}, {"measurement": "inhibition in vivo at 64 mg/kg", "setting": "[6]; 64 mg/kg intraperitoneally", "value": 62, "unit": "%"}, {"measurement": "inhibition in vivo at 128 mg/kg", "setting": "[6]; 128 mg/kg intraperitoneally", "value": 95, "unit": "%"}, {"measurement": "Sum of the counts (stereotypes)", "setting": "[7]; 8 mg/kg intraperitoneally", "value": 14}, {"measurement": "Sum of the counts (stereotypes)", "setting": "[7]; 16 mg/kg intraperitoneally", "value": 18}, {"measurement": "Sum of the counts (stereotypes)", "setting": "[7]; 32 mg/kg intraperitoneally", "value": 21}, {"measurement": "Sum of the counts (stereotypes)", "setting": "[7]; 64 mg/kg intraperitoneally", "value": 33}, {"measurement": "Sum of the counts (stereotypes)", "setting": "[7]; 128 mg/kg intraperitoneally", "value": 43}, {"measurement": "change in vivo at 8 mg/kg", "setting": "Escape test; 8 mg/kg intraperitoneally", "value": 6, "unit": "%"}, {"measurement": "change in vivo at 16 mg/kg", "setting": "Escape test; 16 mg/kg intraperitoneally", "value": 3, "unit": "%"}, {"measurement": "change in vivo at 32 mg/kg", "setting": "Escape test; 32 mg/kg intraperitoneally", "value": -8, "unit": "%"}, {"measurement": "change in vivo at 64 mg/kg", "setting": "Escape test; 64 mg/kg intraperitoneally", "value": -51, "unit": "%"}, {"measurement": "change in vivo at 128 mg/kg", "setting": "Escape test; 128 mg/kg intraperitoneally", "value": -100, "unit": "%"}, {"measurement": "action on the activity of noradrenaline", "setting": "[8]", "value": "without action on the activity of noradrenaline"}, {"measurement": "biochemical and hematological characteristics", "setting": "[9]", "value": "No modification attributable to the treatment was observed"}, {"measurement": "histological examination of the organs", "setting": "[9]", "value": "normal"}, {"measurement": "mortality", "setting": "[9]", "value": "No mortality was observed"}, {"measurement": "weights of the dogs", "setting": "[9]", "value": "remained normal"}, {"measurement": "ED50", "setting": "Laparotomy test; 10 min, 10 min after treatment", "value": 44, "unit": "mg/kg"}, {"measurement": "ED50", "setting": "Laparotomy test; 0.5 h, 30 min after treatment", "value": 100, "unit": "mg/kg"}, {"measurement": "Percentage protection", "setting": "Laparotomy test; 16 mg/kg intraperitoneally, 10 min after treatment, 12 rats", "value": 6, "unit": "%"}, {"measurement": "Number of sleeping rats", "setting": "Laparotomy test; 16 mg/kg intraperitoneally, 10 min after treatment, of 12 rats", "value": 0}, {"measurement": "Percentage protection", "setting": "Laparotomy test; 16 mg/kg intraperitoneally, 30 min after treatment, 6 rats", "value": 0, "unit": "%"}, {"measurement": "Number of sleeping rats", "setting": "Laparotomy test; 16 mg/kg intraperitoneally, 30 min after treatment, of 6 rats", "value": 0}, {"measurement": "Percentage protection", "setting": "Laparotomy test; 32 mg/kg intraperitoneally, 10 min after treatment, 12 rats", "value": 34, "unit": "%"}, {"measurement": "Number of sleeping rats", "setting": "Laparotomy test; 32 mg/kg intraperitoneally, 10 min after treatment, of 12 rats", "value": 0}, {"measurement": "Percentage protection", "setting": "Laparotomy test; 32 mg/kg intraperitoneally, 30 min after treatment, 6 rats", "value": 0, "unit": "%"}, {"measurement": "Number of sleeping rats", "setting": "Laparotomy test; 32 mg/kg intraperitoneally, 30 min after treatment, of 6 rats", "value": 0}, {"measurement": "Percentage protection", "setting": "Laparotomy test; 64 mg/kg intraperitoneally, 10 min after treatment, 24 rats", "value": 62, "unit": "%"}, {"measurement": "Number of sleeping rats", "setting": "Laparotomy test; 64 mg/kg intraperitoneally, 10 min after treatment, of 24 rats", "value": 0}, {"measurement": "Percentage protection", "setting": "Laparotomy test; 64 mg/kg intraperitoneally, 30 min after treatment, 24 rats", "value": 34, "unit": "%"}, {"measurement": "Number of sleeping rats", "setting": "Laparotomy test; 64 mg/kg intraperitoneally, 30 min after treatment, of 24 rats", "value": 0}, {"measurement": "Percentage protection", "setting": "Laparotomy test; 128 mg/kg intraperitoneally, 10 min after treatment, 12 rats", "value": 96, "unit": "%"}, {"measurement": "Number of sleeping rats", "setting": "Laparotomy test; 128 mg/kg intraperitoneally, 10 min after treatment, of 12 rats", "value": 0}, {"measurement": "Percentage protection", "setting": "Laparotomy test; 128 mg/kg intraperitoneally, 30 min after treatment, 12 rats", "value": 62, "unit": "%"}, {"measurement": "Number of sleeping rats", "setting": "Laparotomy test; 128 mg/kg intraperitoneally, 30 min after treatment, of 12 rats", "value": 8}, {"measurement": "Percentage protection", "setting": "Laparotomy test; 256 mg/kg intraperitoneally, 30 min after treatment, 6 rats", "value": 92, "unit": "%"}, {"measurement": "Number of sleeping rats", "setting": "Laparotomy test; 256 mg/kg intraperitoneally, 30 min after treatment, of 6 rats", "value": 6}, {"measurement": "complete or partial analgesia", "setting": "[10]; [11]", "value": 5, "unit": "patients"}, {"measurement": "slight analgesia", "setting": "[10]; [11]", "value": 4, "unit": "patients"}, {"measurement": "moderate analgesia", "setting": "[10]; [12]", "value": "one"}, {"measurement": "no analgesia", "setting": "[10]; [12]", "value": "the last one no analgesia"}, {"measurement": "strong analgesia", "setting": "[10]; [12]", "value": "Six"}, {"measurement": "complete analgesia", "setting": "[10]; [13]", "value": 5, "unit": "patients"}, {"measurement": "partial analgesia", "setting": "[10]; [13]", "value": 2, "unit": "patients"}, {"measurement": "slight analgesia", "setting": "[10]; [13]", "value": 2, "unit": "patients"}, {"measurement": "complete analgesia", "setting": "[10]; [14]", "value": 9, "unit": "patients"}, {"measurement": "moderate analgesia", "setting": "[10]; [14]", "value": 3, "unit": "patients"}, {"measurement": "no analgesia", "setting": "[10]; [14]", "value": "no analgesia in the remaining patient"}]}]}
